{"source": "patent US20060269482A1", "about": "(priority 2005, published 2006)", "key": {"[1]": {"test_system": "retinoblastoma protein (Rb) phosphorylation in MTLn3 cells", "assay": "Rb phosphorylation in MTLn3 cells by Western blot", "format": "cell-based, rat", "conditions": "MTLn3, 20 hours, 0.17, 0.24 and 0.72 μM", "experimental": "Cells were washed 3 times with cold PBS on ice and scraped from the flasks. All cells were collected in 15 ml tubes. Cells were pelleted by centrifugation and lysis buffer was added (1:1 PBS: 2× Tris-Glycine SDS Sample Buffer (Invitrogen, Carlsbad, Calif.) containing 5% 2-β mercaptoethanol). The volume of lysis buffer used was 5 ul per 1×10^6 cells. Samples were sonicated for 30 seconds on ice. Following sonication, samples were clarified by centrifugation at 16,000×g for 10 minutes at 4° C. and protein concentrations were determined using Non-Interfering Protein Assay Kit (Geno Technology Incorporated, Maplewood, Mo.). Proteins were denatured by boiling for 5 minutes and centrifuged as described above. […] For Western blotting, total Rb was detected using antibody from Pharmingen (BD Bioscience, San Diego, Calif.) at a dilution of 1:2000. The phosphorylation status of Rb at serine 780, serine 795 and serine 807/811 was detected with phosphospecific antibodies at dilutions of 1:1000 (Cell Signaling Technology, Beverly, Mass.).\nLysates were analyzed by Western blotting for Rb phosphorylation using polyclonal antibodies prepared against a peptide corresponding to sequences surrounding phosphorylated serine 807/811 in human Rb (FIG. 3)."}, "[2]": {"test_system": "MTLn3 xenograft", "assay": "Tumor growth inhibition in the MTLn3 xenograft model", "format": "in vivo, rat", "conditions": "2 to 3 weeks oral dosing at 80 mg/kg once weekly", "experimental": "Female Fischer rats obtained from Charles River Laboratories were used when they were ˜13-15 weeks old and weighed ˜150 grams. All animals were examined prior to the initiation of studies to ensure that they were healthy and acclimated to the laboratory environment. Autoclaved water and irradiated food were provided ad libitum, and the animals were maintained in a 12 hour light and dark cycle. MTLn3 cells were grown in RPMI 1640 supplemented with 10% heat-inactivated Fetal Bovine Serum (HI-FBS; GIBCO/Invitrogen, Carlsbad, Calif.) and 2 mM L-glutamine (GIBCO/Invitrogen) and maintained at 37° C. at 5% CO2. The MTLn3 cells were obtained from Hoffmann-La Roche Inc., Nutley, N.J. Approximately 1×10^6 cells/0.2mls/rat in PBS (Phosphate Buffered Saline) Phenol-red free, Ca^+2 and Mg^+2-free were implanted subcutaneously in the right mammary fat pad. The dose selected was 80 mg/kg, determined to be an efficacious dose in this animal model. Tumor growth inhibition in the MTLn3 xenograft model after 2 to 3 weeks of oral dosing at 80 mg/kg once weekly averaged 90% with 2/10 complete regressions. […] Concentrations of COMPOUND A in plasma and tumors were determined in the same three animals per time point. […] Peripheral blood mononuclear cells (PBMCs) were isolated, stimulated ex vivo with mitogen and analyzed by Western blot as described below."}, "[3]": {"test_system": "Rb phosphorylation in human PBMCs", "assay": "Rb phosphorylation in human PBMCs treated ex vivo", "format": "cell-based", "conditions": "PMA stimulated, 0.2 to 2.0 μM, Western blot", "experimental": "Approximately 10 mls of blood was collected from five healthy human volunteers into sodium heparin treated Vacutainer blood collection tubes by Employee Health Services. PBMCs were separated using the Lymphocyte Separation Medium (LSM) and protocol supplied by ICN Biomedicals Inc. (Costa Mesa, Calif.). Briefly whole blood was diluted 1:1 with cold HBSS (Hanks Balanced Salt Solution), layered onto the LSM and centrifuged. The band of mononuclear cells above the LSM was collected, transferred to a new tube and washed once with cold HBSS. Cells were resuspended in RPMI 1640, 10% HI-FBS, 2 mM L-glutamine and 0.01 mg/ml Gentamicin Reagent Solution (GIBCO/Invitrogen). […]\nPBMCs were collected by transferring the cells, including attached cells and those in suspension, into 50 ml tubes. […] Samples were sonicated on ice for 30 seconds, clarified by centrifugation at 16,000×g for 10 minutes at 4° C. and protein concentrations determined using Non-Interfering Protein Assay Kit (Geno Technology Incorporated, Maplewood, Mo.). […] For Western blotting, total Rb was detected using antibody from Pharmingen (BD Bioscience, San Diego, Calif.) at a dilution of 1:2000. Lysates were analysed by Western blotting for Rb phosphorylation using polyclonal antibodies against phosphorylated serine 795, serine 780, threonine 821 and serine 807/811 in human Rb (FIG. 8). […]"}}, "data": [{"smiles": "COc1ccc(F)c(F)c1C(=O)c1cnc(NC2CCN(S(C)(=O)=O)CC2)nc1N", "note": "[COMPOUND A, [4-amino-2-(1-methanesulfonylpiperidin-4-ylamino)pyrimidin-5-yl]-(2,3-difluoro-6-methoxyphenyl)methanone]", "values": [{"measurement": "Rb phosphorylation at epitope recognized by anti-phospho-serine 807/811 antibody", "setting": "[1]", "result": "inhibition of phosphorylation"}, {"measurement": "Tumor growth inhibition", "setting": "[2]", "result": 90, "unit": "%"}, {"measurement": "complete regressions", "setting": "[2]", "result": "2/10"}, {"measurement": "Rb phosphorylation at the serine 807/811 site", "setting": "[3]; human PBMCs of two donors", "result": "complete inhibition of phosphorylation"}, {"measurement": "Rb phosphorylation at the threonine 821 site", "setting": "[3]; human PBMCs, 24 hours incubation", "result": "not inhibited at any concentration"}]}]}
